Measured values taken from patent US6638936B1, “Benzofurylpiperazine serotonin agonists” (Eli Lilly and Company, priority 1999, dated 2003).
Read-outs that look alike come from different tables or passages of the source.

How the values were obtained:
human 5-HT2C receptor [1] = target: T1, human 5-HT2C receptor (Homo sapiens, UniProt P28335); assay: [125I]-DOI binding for determination of 5-HT2c receptor affinity; settings: for Ki: 5-HT RECEPTOR 2c, [125I]-DOI, membranes of AV12 cells with human 5-HT2c, Ki from IC50 by Cheng-Prusoff; for affinity for the 5-HT2c receptor (in words): [125I]-DOI binding
T1 construct: expressed in transfected cells
T1 sequence (P28335 33-458): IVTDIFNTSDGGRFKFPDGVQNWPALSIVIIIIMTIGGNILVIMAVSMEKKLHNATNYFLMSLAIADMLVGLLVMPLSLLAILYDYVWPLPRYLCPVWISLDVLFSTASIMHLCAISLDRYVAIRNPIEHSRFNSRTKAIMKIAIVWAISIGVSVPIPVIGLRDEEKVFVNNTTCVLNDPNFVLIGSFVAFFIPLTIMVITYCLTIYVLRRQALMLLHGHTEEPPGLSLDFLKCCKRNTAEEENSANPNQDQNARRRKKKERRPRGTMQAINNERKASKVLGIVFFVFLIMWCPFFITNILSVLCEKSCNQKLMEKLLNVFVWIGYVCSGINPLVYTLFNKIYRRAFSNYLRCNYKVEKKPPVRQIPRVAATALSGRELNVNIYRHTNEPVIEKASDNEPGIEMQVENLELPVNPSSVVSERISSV
Procedure: The ability of the compounds of Formula I to bind to the 5-HT2c receptor subtype was measured essentially as described by Wainscott (Wainscott, et al., Journal of Pharmacology and Experimental Therapeutics, 276, 720-727 (1996)).
AV12 cells stably transfected with the human 5-HT2c receptors were grown in suspension and harvested by centrifugation, resuspended in 50 mM tris-HCl, pH 7.4, and frozen at −70° C. On the day of assay, an aliquot of cells was thawed, resuspended in 40 mL of 50 mM tris-HCl, pH 7.4, and centrifuged at 39,800×g for 10 minutes at 4° C. The resulting pellet was resuspended, incubated at 37° C. for 10 minutes to remove endogenous serotonin, then centrifuged twice more.
Briefly, prepared cell membranes were added to dilutions of compounds in a final solution containing 50 mM tris-HCl, pH 7.4, 9.75 mM MgCl2, 0.5 mM EDTA, 10 μM pargyline, 0.1% sodium ascorbate, and 0.1 nM [^125I]-DOI, with 10 μM mianserin for defining non-specific binding. All incubations (800 μL) were performed at 37° C. for 30 minutes before harvesting onto GF/C filters prewet with 0.5% polyethyleneimine, with four 1 mL washes of ice-cold 50 mM tris-HCl, pH 7.4, and counting in a gamma counter. Nonlinear regression analysis was performed on the concentration response curves using a four parameter logistic equation described by DeLean (DeLean, et al., Molecular Pharmacology, 21, 5-16 (1982)). IC50 values were converted to Ki values using the Cheng-Prusoff equation (Cheng, et al., Biochem. Pharmacol., 22, 3099-3108 (1973)).

5-HT1a receptor = target: T2, 5-HT1a receptor (Homo sapiens, UniProt P08908); assay: Serotonergic receptor binding selectivity, 5-HT1a
T2 sequence (P08908 1-422): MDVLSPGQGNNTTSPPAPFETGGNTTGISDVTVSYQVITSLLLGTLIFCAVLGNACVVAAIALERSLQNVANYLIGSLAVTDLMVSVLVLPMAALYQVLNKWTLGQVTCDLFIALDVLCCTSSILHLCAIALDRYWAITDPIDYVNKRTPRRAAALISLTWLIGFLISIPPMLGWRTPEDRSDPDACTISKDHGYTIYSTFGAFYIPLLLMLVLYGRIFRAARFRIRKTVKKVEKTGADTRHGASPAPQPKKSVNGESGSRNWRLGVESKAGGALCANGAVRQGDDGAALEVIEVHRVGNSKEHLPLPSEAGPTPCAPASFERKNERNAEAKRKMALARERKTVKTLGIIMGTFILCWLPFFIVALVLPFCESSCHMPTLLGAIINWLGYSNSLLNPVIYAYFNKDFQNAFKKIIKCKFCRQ

5-HT1b receptor = 5-HT1b receptor (Homo sapiens, UniProt P28222); assay: Serotonergic receptor binding selectivity, 5-HT1b; settings: 5-HT RECEPTOR 1b
Chain of 5-HT1b receptor (P28222 whole entry): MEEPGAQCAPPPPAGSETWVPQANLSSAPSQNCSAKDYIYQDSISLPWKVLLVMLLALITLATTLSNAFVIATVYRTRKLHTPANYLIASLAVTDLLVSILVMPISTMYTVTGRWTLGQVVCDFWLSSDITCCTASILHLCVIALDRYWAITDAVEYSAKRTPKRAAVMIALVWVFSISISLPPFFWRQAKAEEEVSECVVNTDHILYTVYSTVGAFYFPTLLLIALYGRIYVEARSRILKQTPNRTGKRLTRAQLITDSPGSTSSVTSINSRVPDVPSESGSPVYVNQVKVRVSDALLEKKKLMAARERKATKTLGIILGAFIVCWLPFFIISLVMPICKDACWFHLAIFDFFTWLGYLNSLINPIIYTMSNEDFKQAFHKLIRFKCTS

5-HT1d receptor = 5-HT1d receptor (Homo sapiens, UniProt P28221); assay: Serotonergic receptor binding selectivity, 5-HT1d; settings: 5-HT RECEPTOR 1d
Chain of 5-HT1d receptor (P28221 whole entry): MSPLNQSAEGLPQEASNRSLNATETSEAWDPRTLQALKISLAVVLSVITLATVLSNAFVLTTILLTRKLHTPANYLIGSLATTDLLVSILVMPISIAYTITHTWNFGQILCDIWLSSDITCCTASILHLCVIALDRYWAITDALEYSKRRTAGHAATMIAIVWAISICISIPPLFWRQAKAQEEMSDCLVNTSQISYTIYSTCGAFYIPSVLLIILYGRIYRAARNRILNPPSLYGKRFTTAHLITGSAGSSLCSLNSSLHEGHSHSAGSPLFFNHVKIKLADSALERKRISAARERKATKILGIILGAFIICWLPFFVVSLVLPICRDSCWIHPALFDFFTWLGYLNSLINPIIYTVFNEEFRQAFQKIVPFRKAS

5-HT1e receptor = 5-HT1e receptor (Homo sapiens, UniProt P28566); assay: Serotonergic receptor binding selectivity, 5-HT1e; settings: 5-HT RECEPTOR 1e
Chain of 5-HT1e receptor (P28566 whole entry): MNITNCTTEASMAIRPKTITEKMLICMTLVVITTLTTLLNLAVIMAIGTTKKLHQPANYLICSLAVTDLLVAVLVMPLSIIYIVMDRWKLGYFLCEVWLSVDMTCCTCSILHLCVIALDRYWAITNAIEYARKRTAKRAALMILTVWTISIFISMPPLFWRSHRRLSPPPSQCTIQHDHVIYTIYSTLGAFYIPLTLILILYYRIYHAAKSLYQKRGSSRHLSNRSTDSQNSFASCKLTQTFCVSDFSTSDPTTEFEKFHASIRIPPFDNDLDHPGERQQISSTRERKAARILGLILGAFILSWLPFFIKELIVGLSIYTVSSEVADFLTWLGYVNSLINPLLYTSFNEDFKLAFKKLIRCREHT

5-HT1f receptor = target: T3, 5-HT1f receptor (Homo sapiens, UniProt P30939); assay: Serotonergic receptor binding selectivity, 5-HT1f; settings: 5-HT RECEPTOR 1f
T3 sequence (P30939 1-366): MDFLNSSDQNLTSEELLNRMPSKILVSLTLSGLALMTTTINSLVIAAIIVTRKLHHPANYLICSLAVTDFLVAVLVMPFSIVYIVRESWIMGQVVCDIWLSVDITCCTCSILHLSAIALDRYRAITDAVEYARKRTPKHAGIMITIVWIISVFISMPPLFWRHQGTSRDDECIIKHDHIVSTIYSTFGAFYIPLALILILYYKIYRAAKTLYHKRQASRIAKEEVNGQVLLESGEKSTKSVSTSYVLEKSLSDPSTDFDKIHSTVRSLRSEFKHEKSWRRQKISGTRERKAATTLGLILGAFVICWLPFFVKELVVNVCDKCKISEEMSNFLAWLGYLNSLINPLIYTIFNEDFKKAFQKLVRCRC

5-HT2a receptor = 5-HT2a receptor (Homo sapiens, UniProt P28223); assay: Serotonergic receptor binding selectivity, 5-HT2a
Chain of 5-HT2a receptor (P28223 whole entry): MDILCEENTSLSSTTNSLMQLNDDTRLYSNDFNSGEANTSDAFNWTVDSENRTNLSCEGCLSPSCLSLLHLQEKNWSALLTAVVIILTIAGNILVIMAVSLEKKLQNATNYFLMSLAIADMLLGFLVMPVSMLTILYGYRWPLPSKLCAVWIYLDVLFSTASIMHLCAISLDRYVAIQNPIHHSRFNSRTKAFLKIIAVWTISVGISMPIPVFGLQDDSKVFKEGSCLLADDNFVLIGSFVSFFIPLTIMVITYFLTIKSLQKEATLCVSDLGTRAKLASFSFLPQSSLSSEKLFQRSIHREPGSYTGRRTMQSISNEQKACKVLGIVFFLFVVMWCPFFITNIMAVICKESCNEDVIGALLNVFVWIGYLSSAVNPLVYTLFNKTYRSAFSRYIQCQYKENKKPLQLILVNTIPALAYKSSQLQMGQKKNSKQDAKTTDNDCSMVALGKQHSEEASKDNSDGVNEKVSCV

5-HT2b receptor = 5-HT2b receptor (Homo sapiens, UniProt P41595); assay: Serotonergic receptor binding selectivity, 5-HT2b
Chain of 5-HT2b receptor (P41595 whole entry): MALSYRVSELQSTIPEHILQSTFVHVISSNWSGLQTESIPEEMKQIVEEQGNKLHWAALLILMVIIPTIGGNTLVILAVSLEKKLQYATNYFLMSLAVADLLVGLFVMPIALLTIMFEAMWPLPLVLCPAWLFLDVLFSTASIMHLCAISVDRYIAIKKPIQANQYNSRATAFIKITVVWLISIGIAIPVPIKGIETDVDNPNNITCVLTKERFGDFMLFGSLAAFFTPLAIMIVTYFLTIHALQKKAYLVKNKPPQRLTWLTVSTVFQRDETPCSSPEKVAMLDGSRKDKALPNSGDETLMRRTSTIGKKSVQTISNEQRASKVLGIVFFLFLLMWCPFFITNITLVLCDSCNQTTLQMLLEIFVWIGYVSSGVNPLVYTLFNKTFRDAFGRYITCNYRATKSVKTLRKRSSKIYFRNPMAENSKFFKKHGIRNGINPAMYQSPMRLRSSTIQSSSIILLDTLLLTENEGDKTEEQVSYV

5-HT4 receptor = 5-HT4 receptor (Homo sapiens, UniProt Q13639); assay: Serotonergic receptor binding selectivity, 5-HT4; settings: 5-HT RECEPTOR 4
Chain of 5-HT4 receptor (Q13639 whole entry): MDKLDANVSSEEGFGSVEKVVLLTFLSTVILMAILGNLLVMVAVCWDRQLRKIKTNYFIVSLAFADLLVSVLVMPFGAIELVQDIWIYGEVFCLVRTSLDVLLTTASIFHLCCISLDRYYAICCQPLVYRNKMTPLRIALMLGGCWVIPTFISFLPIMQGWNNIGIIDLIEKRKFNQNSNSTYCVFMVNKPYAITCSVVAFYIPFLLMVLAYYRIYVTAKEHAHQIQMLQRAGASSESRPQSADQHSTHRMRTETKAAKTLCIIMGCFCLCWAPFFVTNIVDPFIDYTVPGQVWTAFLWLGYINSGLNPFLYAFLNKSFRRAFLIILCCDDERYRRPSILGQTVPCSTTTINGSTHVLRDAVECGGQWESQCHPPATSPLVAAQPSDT

5-HT6 receptor = 5-HT6 receptor (Homo sapiens, UniProt P50406); assay: Serotonergic receptor binding selectivity, 5-HT6
Chain of 5-HT6 receptor (P50406 whole entry): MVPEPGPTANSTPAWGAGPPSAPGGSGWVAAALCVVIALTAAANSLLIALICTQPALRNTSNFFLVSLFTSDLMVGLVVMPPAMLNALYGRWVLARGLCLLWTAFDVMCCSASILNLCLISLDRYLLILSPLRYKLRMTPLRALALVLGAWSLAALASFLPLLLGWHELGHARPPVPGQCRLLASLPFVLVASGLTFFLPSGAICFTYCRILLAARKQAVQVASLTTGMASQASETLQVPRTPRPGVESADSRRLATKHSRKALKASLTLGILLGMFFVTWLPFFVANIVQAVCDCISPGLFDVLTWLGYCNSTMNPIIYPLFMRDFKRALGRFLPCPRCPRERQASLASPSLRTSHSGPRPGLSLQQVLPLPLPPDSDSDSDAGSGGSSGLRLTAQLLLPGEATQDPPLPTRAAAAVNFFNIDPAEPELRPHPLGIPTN

human 5-HT2C receptor [2] = target: T1, human 5-HT2C receptor; assay: [35S]-GTPγS binding (immunoadsorption scintillation proximity assay); assay type: biochemical; settings: for functional activity at the 5-HT2c receptor (in words): [35S]-GTPγS assay
Source text: The 5-HT2C receptor is functionally coupled to specific G-proteins. Agonist activation of 5-HT2C G-protein-coupled receptors results in the release of GDP from the […] (G alpha q or G alpha i) of the G-protein and the subsequent binding of GTP. The binding of the stable analog [^35S]-GTPγS is an indicator of this receptor's activation.
The immunoadsorption scintillation proximity assay (ISPA) in microtiter plates of [^35S]-GTPγS binding to G alpha q or G alpha i was modified from published conditions (DeLapp et al, JPET 289 (1999) 946-955). Test compounds were dissolved in DMSO and diluted in assay buffer consisting of 50 mM Tris-HCl (pH 7.4), 10 mM MgCl2, 100 mM NaCl, and 0.2 mM EGTA. Incubations were performed over 12 test concentrations; volume was 200 μl. The incubation also contained […] and 0.25 nM [^35S]-GTPγS. Membrane homogenates from AV12 cells stably transfected with the human 5-HT2C receptor were added and the microtiter plates were incubated for 30 minutes at room temperature. The incubation was terminated by the addition of Nonidet P-40 (final concentration of 0.27%), followed by addition of rabbit polyclonal anti-G alpha q/11 antibody (0.2 μg per well), and anti-rabbit scintillation proximity assay beads (Amersham; 1.25 mg per well; final volume was 290 μl). The mixture was incubated for 3 hours at room temperature to complete the immunoadsorption of [^35S]-GTPγS bound to G alpha q/11. Microtiter plates were centrifuged briefly to pellet beads. [^35S]-GTPγS binding was quantitated by microtiter plate scintillation spectrometry (Wallac). Data analysis was performed by nonlinear regression analysis with GraphPad Prism software running on a personal computer, using 5-HT control concentration-response curves to define maximal stimulation of [^35S]-GTPγS binding.

SMILES | Ki (human 5-HT2C receptor [1]) [µM] | affinity for the 5-HT2c receptor (in words) (human 5-HT2C receptor [1]) | Ki (5-HT1a receptor) [µM] | Ki (5-HT1b receptor) [µM] | Ki (5-HT1d receptor) [µM] | Ki (5-HT1e receptor) [µM] | Ki (5-HT1f receptor) [µM] | Ki (5-HT2a receptor) [µM] | Ki (5-HT2b receptor) [µM] | Ki (5-HT4 receptor) [µM] | Ki (5-HT6 receptor) [µM] | EC50 (human 5-HT2C receptor [2]) [µM] | functional activity at the 5-HT2c receptor (in words) (human 5-HT2C receptor [2]) | Ki (5-HT1a receptor; 5-HT RECEPTOR 1a, read-out: Ki, 5-HT receptor 1a) [µM] | Ki (5-HT2a receptor; 5-HT RECEPTOR 2a, read-out: Ki, 5-HT receptor 2a) [µM] | Ki (5-HT2b receptor; 5-HT RECEPTOR 2b, read-out: Ki, 5-HT receptor 2b) [µM] | Ki (5-HT6 receptor; 5-HT RECEPTOR 6, read-out: Ki, 5-HT receptor 6) [µM] | EC50 (human 5-HT2C receptor [2]; agonist of 5-HT2c receptor, membranes of AV12 cells with human 5-HT2C, 5-HT defines maximal stimulation, read-out: EC50, [35S]-GTPγS assay) [µM]
C[C@H]1CN(c2ccc(C(F)(F)F)c3ccoc23)CCN1.O=C(O)/C=C/C(=O)O [Example 1, 1-(4-trifluoromethylbenzofur-7-yl)-3(S)-methylpiperazine fumarate] | 0.00241 | found to have affinity | 0.134 | 0.26 | 0.147 | 0.633 | 0.163 | 0.0376 | 0.177 | 0.977 | 0.225 | 0.0085 | agonist |  |  |  |  | 
CC[C@H]1CN(c2ccc(C(F)(F)F)c3ccoc23)CCN1.O=C(O)/C=C/C(=O)O [Example 2, 1-(4-trifluoromethylbenzofur-7-yl)-3(S)-ethylpiperazine fumarate] | 0.00077 | found to have affinity |  | 2.94 | 0.726 | 1.14 | 1 |  |  |  |  |  | agonist | 0.261 | 0.0278 | 0.177 | 0.607 | 0.0078
